Test results from the supplement of paper PMC10627819.

Columns and labels:
S. aureus DSM 20231 [1] = assay: fitness (endpoint OD595 vs no drug) (fraction); higher = more growth
Procedure, shortened: (§1)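 Fitness was measured as bacterial growth in 384-well plates inoculated at OD595 0.01 (30 µl, or 55 µl for S. pneumoniae). Media were TSB, LB Lennox or CY, at 37 °C. OD595 was read every 30 min for 14 h and background-subtracted against the first reading. Fitness is OD595 at the transition into stationary phase divided by the robust mean of no-drug control wells, capped at 1.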

S. aureus Newman [2] = assay: as above
Procedure, shortened: as §1

S. pneumoniae D39V [3] = assay: as above
Procedure, shortened: as §1

S. aureus DSM 20231 [4] = assay: Bliss interaction score (quartile over a dose matrix) (fitness difference); higher = more antagonism (negative = synergy)
Procedure, shortened: (§2)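 The Bliss score was calculated by subtracting the expected fitness, the product of single-drug values, from the observed fitness. OD595 at entry into stationary phase, over the plate's robust no-drug mean and capped at 1, served as the fitness readout. Single-drug values were inferred from combination data, and scores are summarised by quartiles across technical, biological and donor/recipient replicates.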

B. subtilis 168 = assay: as above
Procedure, shortened: as §2

S. aureus Newman [5] = assay: as above
Procedure, shortened: as §2

S. pneumoniae D39V [6] = assay: as above
Procedure, shortened: as §2
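Wherever Bliss interaction score (quartile over a dose matrix) is given: first quartile when negative (synergy) and third quartile when positive (antagonism).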

COc1c(N2C[C@@H]3CCCN[C@@H]3C2)c(F)cc2c(=O)c(C(=O)O)cn(C3CC3)c12 [Moxifloxacin] + Cn1nnc(-c2ccc(-c3ccc(N4C[C@H](CO)OC4=O)cc3F)cn2)n1 [Tedizolid]
fitness
Details | partner 0.03125 µg/mL | partner 0.0625 µg/mL | partner 0.125 µg/mL | partner 0.25 µg/mL | partner 0.5 µg/mL
S. aureus DSM 20231 [1], first compound 0.0075 µg/mL | – | 0.813 | 0.765 | 0.411 | –
S. aureus DSM 20231 [1], first compound 0.015 µg/mL | – | 0.755 | 0.704 | 0.453 | –
S. aureus DSM 20231 [1], first compound 0.03 µg/mL | – | 0.682 | 0.7 | 0.653 | –
S. aureus Newman [2], first compound 0.0075 µg/mL | – | 0.755 | 0.737 | 0.41 | –
S. aureus Newman [2], first compound 0.015 µg/mL | – | 0.587 | 0.581 | 0.291 | –
S. aureus Newman [2], first compound 0.03 µg/mL | – | – | 0.343 | 0.178 | –
S. pneumoniae D39V [3], first compound 0.0037 µg/mL | 0.887 | 0.877 | 0.741 | – | –
S. pneumoniae D39V [3], first compound 0.005 µg/mL | – | – | 0.851 | 0.8 | 0.441
S. pneumoniae D39V [3], first compound 0.0075 µg/mL | 0.904 | 0.871 | 0.761 | – | –
S. pneumoniae D39V [3], first compound 0.01 µg/mL | – | – | 0.857 | 0.775 | 0.466
S. pneumoniae D39V [3], first compound 0.015 µg/mL | 0.897 | 0.822 | 0.761 | – | –
S. pneumoniae D39V [3], first compound 0.02 µg/mL | – | – | 0.842 | 0.778 | 0.49

fitness, S. aureus DSM 20231 [1], one replicate
Details | partner 0.0625 µg/mL | partner 0.125 µg/mL | partner 0.25 µg/mL
first compound 0.06 µg/mL | 0.67 | 0.69 | 0.727
first compound 0.12 µg/mL | 0.511 | 0.539 | 0.595

Details | Bliss interaction score
B. subtilis 168 | -0.0253
S. aureus DSM 20231 [4] | 0.103
S. aureus Newman [5] | 0.0881
S. pneumoniae D39V [6] | -0.0629

O=C(O[C@@H]1Cc2c(O)cc(O)cc2O[C@@H]1c1cc(O)c(O)c(O)c1)c1cc(O)c(O)c(O)c1 [EGCG] + CN[C@H](CC(C)C)C(=O)N[C@H]1C(=O)N[C@@H](CC(N)=O)C(=O)N[C@H]2C(=O)N[C@H]3C(=O)N[C@H](C(=O)N[C@H](C(=O)O)c4cc(O)cc(O)c4-c4cc3ccc4O)[C@H](O)c3ccc(c(Cl)c3)Oc3cc2cc(c3O[C@@H]2O[C@H](CO)[C@@H](O)[C@H](O)[C@H]2O[C@H]2C[C@](C)(N)[C@H](O)[C@H](C)O2)Oc2ccc(cc2Cl)[C@H]1O [Vancomycin]
fitness
Details | first compound 12.5 µg/mL | first compound 25 µg/mL | first compound 50 µg/mL
S. aureus DSM 20231 [1], partner 0.1875 µg/mL | 0.846 | 0.747 | 0.753
S. aureus DSM 20231 [1], partner 0.375 µg/mL | 0.842 | 0.781 | 0.836
S. aureus DSM 20231 [1], partner 0.75 µg/mL | 0.865 | 0.885 | 0.738
S. aureus Newman [2], partner 0.1875 µg/mL | 0.754 | 0.782 | –
S. aureus Newman [2], partner 0.375 µg/mL | 0.757 | 0.766 | 0.846
S. aureus Newman [2], partner 0.75 µg/mL | 0.789 | 0.776 | 0.778
S. pneumoniae D39V [3], partner 0.03125 µg/mL | 0.907 | 0.913 | 0.931
S. pneumoniae D39V [3], partner 0.0625 µg/mL | 0.887 | 0.901 | 0.959
S. pneumoniae D39V [3], partner 0.125 µg/mL | 0.889 | 0.89 | 0.948
S. pneumoniae D39V [3], partner 0.25 µg/mL | 0.317 | – | 0.397
S. pneumoniae D39V [3], partner 0.5 µg/mL | 0.0543 | 0.0794 | 0.143

Details | Bliss interaction score
B. subtilis 168 | 0.0425
S. aureus DSM 20231 [4] | 0.0881
S. aureus Newman [5] | -0.0625
S. pneumoniae D39V [6] | 0.0478

CCC[C@@H]1C[C@@H](C(=O)N[C@@H]([C@H]2O[C@H](SC)[C@H](O)[C@@H](O)[C@H]2O)[C@H](C)Cl)N(C)C1 [Clindamycin] + CN[C@H](CC(C)C)C(=O)N[C@H]1C(=O)N[C@@H](CC(N)=O)C(=O)N[C@H]2C(=O)N[C@H]3C(=O)N[C@H](C(=O)N[C@H](C(=O)O)c4cc(O)cc(O)c4-c4cc3ccc4O)[C@H](O)c3ccc(c(Cl)c3)Oc3cc2cc(c3O[C@@H]2O[C@H](CO)[C@@H](O)[C@H](O)[C@H]2O[C@H]2C[C@](C)(N)[C@H](O)[C@H](C)O2)Oc2ccc(cc2Cl)[C@H]1O [Vancomycin]
Details | fitness
S. aureus DSM 20231 [1], first compound 0.125 µg/mL, partner 0.1875 µg/mL | 0.0642
S. aureus DSM 20231 [1], first compound 0.125 µg/mL, partner 0.375 µg/mL | 0.0657
S. aureus DSM 20231 [1], first compound 0.125 µg/mL, partner 0.75 µg/mL | 0.0731
S. aureus Newman [2], first compound 0.0312 µg/mL, partner 0.1875 µg/mL | 0.764
S. aureus Newman [2], first compound 0.0312 µg/mL, partner 0.375 µg/mL | 0.761
S. aureus Newman [2], first compound 0.0312 µg/mL, partner 0.75 µg/mL | 0.762
S. pneumoniae D39V [3], first compound 0.0125 µg/mL, partner 0.125 µg/mL | 0.782
S. pneumoniae D39V [3], first compound 0.0125 µg/mL, partner 0.25 µg/mL | 0.702
S. pneumoniae D39V [3], first compound 0.0125 µg/mL, partner 0.5 µg/mL | 0.0792
S. pneumoniae D39V [3], first compound 0.015 µg/mL, partner 0.03125 µg/mL | 0.89
S. pneumoniae D39V [3], first compound 0.015 µg/mL, partner 0.0625 µg/mL | 0.844
S. pneumoniae D39V [3], first compound 0.015 µg/mL, partner 0.125 µg/mL | 0.63
S. pneumoniae D39V [3], first compound 0.025 µg/mL, partner 0.125 µg/mL | 0.544
S. pneumoniae D39V [3], first compound 0.025 µg/mL, partner 0.25 µg/mL | 0.47
S. pneumoniae D39V [3], first compound 0.025 µg/mL, partner 0.5 µg/mL | 0.0715
S. pneumoniae D39V [3], first compound 0.03 µg/mL, partner 0.03125 µg/mL | 0.738
S. pneumoniae D39V [3], first compound 0.03 µg/mL, partner 0.0625 µg/mL | 0.7
S. pneumoniae D39V [3], first compound 0.03 µg/mL, partner 0.125 µg/mL | 0.526
S. pneumoniae D39V [3], first compound 0.05 µg/mL, partner 0.125 µg/mL | 0.296
S. pneumoniae D39V [3], first compound 0.05 µg/mL, partner 0.25 µg/mL | 0.237
S. pneumoniae D39V [3], first compound 0.05 µg/mL, partner 0.5 µg/mL | 0.0635
S. pneumoniae D39V [3], first compound 0.06 µg/mL, partner 0.03125 µg/mL | 0.501
S. pneumoniae D39V [3], first compound 0.06 µg/mL, partner 0.0625 µg/mL | 0.47
S. pneumoniae D39V [3], first compound 0.06 µg/mL, partner 0.125 µg/mL | 0.327

Details | Bliss interaction score
B. subtilis 168 | 0.0503
S. aureus DSM 20231 [4] | 0.0292
S. aureus Newman [5] | 0.135
S. pneumoniae D39V [6] | 0.111
